According to article PMC8942523, “The three-tails approach as a new strategy to improve selectivity of action of sulphonamide inhibitors against tumour-associated carbonic anhydrase IX and XII” (Journal of Enzyme Inhibition and Medicinal Chemistry, 2022):

Biological target: T1, hCA IX (Homo sapiens, UniProt Q16790)
T1 construct: gene CA9
Experiment: stopped-flow CO2 hydration
Assay type: biochemical
Excerpt: stopped-flow CO2 hydration on hCA IX

`CCN(CC)CC(=O)N(CCc1ccc(S(N)(=O)=O)cc1)Cc1ccccc1` [compound 18, 18] and `CCN(CC)CCC(=O)N(CCc1ccc(S(N)(=O)=O)cc1)Cc1ccccc1` [compound 24, 24] are within 1.5-fold of each other in Ki: 30.6 nM for the first, 31.1 nM for the second.

`CCN(CC(=O)N(CCc1ccc(S(N)(=O)=O)cc1)Cc1ccccc1)Cc1ccccc1` [compound 19, 19] and `CCN(CCC(=O)N(CCc1ccc(S(N)(=O)=O)cc1)Cc1ccccc1)Cc1ccccc1` [compound 25, 25] are within 1.5-fold of each other in Ki: 119 nM for the first, 166 nM for the second.

Compared with `NS(=O)(=O)c1ccc(CCN(Cc2ccccc2)C(=O)CN(Cc2ccccc2)Cc2ccccc2)cc1` [compound 20, 20], `NS(=O)(=O)c1ccc(CCN(Cc2ccccc2)C(=O)CCN(Cc2ccccc2)Cc2ccccc2)cc1` [compound 26, 26] is 2.2-fold lower in Ki: 234 nM for the first, 106 nM for the second.

Going from `CCCCCN(CCCCC)CC(=O)N(CCc1ccc(S(N)(=O)=O)cc1)Cc1ccccc1` [compound 21, 21] to `CCCCCCN(CCCCCC)CC(=O)N(CCc1ccc(S(N)(=O)=O)cc1)Cc1ccccc1` [compound 22, 22], the Ki rises from 48.5 nM to 123 nM (2.5-fold). The first binds more tightly here.

Compared with `CCCCCCCCN(CCCCCCCC)CC(=O)N(CCc1ccc(S(N)(=O)=O)cc1)Cc1ccccc1` [compound 23, 23], `CCCCCCCCN(CCCCCCCC)CCC(=O)N(CCc1ccc(S(N)(=O)=O)cc1)Cc1ccccc1` [compound 29, 29] is 1.8-fold lower in Ki: 271 nM for the first, 147 nM for the second.

`CCCCCN(CCCCC)CCC(=O)N(CCc1ccc(S(N)(=O)=O)cc1)Cc1ccccc1` [compound 27, 27] and `CCCCCCN(CCCCCC)CCC(=O)N(CCc1ccc(S(N)(=O)=O)cc1)Cc1ccccc1` [compound 28, 28] are within 1.5-fold of each other in Ki: 134 nM for the first, 94.2 nM for the second.

Going from `CCCCCCN(CCCCCC)CCC(=O)N(CCc1ccccc1)CCc1ccc(S(N)(=O)=O)cc1` [compound 30, 30] to `CCCCCCN(CCCCCC)CC(=O)N(CCC(=O)O)CCc1ccc(S(N)(=O)=O)cc1` [compound 49, 49], the Ki rises from 42.9 nM to 68.3 nM (1.6-fold). The first binds more tightly here.

Going from `CCCCCCN(CCCCCC)CC(=O)N(CCc1ccc(S(N)(=O)=O)cc1)Cc1ccc2ccccc2c1` [compound 32, 32] to `CCCCCCN(CCCCCC)CC(=O)N(CCC#N)CCc1ccc(S(N)(=O)=O)cc1` [compound 33, 33], the Ki falls from 296 nM to 154 nM (1.9-fold).

First: N#CCCN(CCc1ccccc1)CC(=O)N(CCc1ccccc1)CCc1ccc(S(N)(=O)=O)cc1 [compound 34, 34]
Second: NCCCN(CCc1ccccc1)CC(=O)N(CCc1ccccc1)CCc1ccc(S(N)(=O)=O)cc1 [compound 40, 40]
The Ki of the first is 8.1-fold higher: 32.3 nM for the first, 4 nM for the second.

First: N#CCCN(CCc1ccccc1)CC(=O)N(CCc1ccc(S(N)(=O)=O)cc1)Cc1ccco1 [compound 35, 35]
Second: NCCCN(CCc1ccccc1)CC(=O)N(CCc1ccc(S(N)(=O)=O)cc1)Cc1ccco1 [compound 41, 41]
The Ki of the first is 8.6-fold higher: 95.1 nM for the first, 11.1 nM for the second. The second binds more tightly here.

First: N#CCCN(CCc1ccccc1)CC(=O)N(CCc1ccc(S(N)(=O)=O)cc1)Cc1ccc(F)cc1 [compound 36, 36]
Second: NCCCN(CCc1ccccc1)CC(=O)N(CCc1ccc(S(N)(=O)=O)cc1)Cc1ccc(F)cc1 [compound 42, 42]
The Ki of the first is 1.6-fold lower: 3 nM for the first, 4.8 nM for the second. The first binds more tightly here.

Compared with `N#CCCN(CCc1ccccc1)CC(=O)N(CCc1ccc(S(N)(=O)=O)cc1)Cc1ccc2ccccc2c1` [compound 37, 37], `NCCCN(CCc1ccccc1)CC(=O)N(CCc1ccc(S(N)(=O)=O)cc1)Cc1ccc2ccccc2c1` [compound 43, 43] is 4.4-fold lower in Ki: 151 nM for the first, 34.3 nM for the second. The second binds more tightly here.

First: N#CCCN(CCc1ccccc1)CC(=O)N(CCc1ccc(S(N)(=O)=O)cc1)Cc1ccc([N+](=O)[O-])cc1 [compound 38, 38]
Second: NS(=O)(=O)c1ccc(CCN(Cc2ccc(F)cc2)C(=O)CN(CCC(=O)O)CCc2ccccc2)cc1 [compound 47, 47]
The Ki of the first is 18-fold higher: 202 nM for the first, 11.1 nM for the second.

Compared with `N#CCCN(CCc1ccccc1)CC(=O)N(CCC#N)CCc1ccc(S(N)(=O)=O)cc1` [compound 39, 39], `NS(=O)(=O)c1ccc(CCN(CCc2ccccc2)C(=O)CN(CCC(=O)O)CCc2ccccc2)cc1` [compound 45, 45] is 2.6-fold lower in Ki: 19.3 nM for the first, 7.5 nM for the second. The second binds more tightly here.

Compared with `CCCCCCN(CCCCCC)CC(=O)N(CCCN)CCc1ccc(S(N)(=O)=O)cc1` [compound 44, 44], `CCCCCCCC/C=C\CCCCCCCCNC(=O)CCN(CCc1ccccc1)CC(=O)N(CCc1ccc(S(N)(=O)=O)cc1)Cc1ccco1` [compound 50, 50] is 1.9-fold lower in Ki: 116 nM for the first, 61.1 nM for the second. The second binds more tightly here.

Compared with `NS(=O)(=O)c1ccc(CCN(Cc2ccco2)C(=O)CN(CCC(=O)O)CCc2ccccc2)cc1` [compound 46, 46], `NS(=O)(=O)c1ccc(CCN(Cc2ccc3ccccc3c2)C(=O)CN(CCC(=O)O)CCc2ccccc2)cc1` [compound 48, 48] is 18-fold higher in Ki: 1.2 nM for the first, 22.1 nM for the second. The first binds more tightly here.
